Source: patent US12649733B2, “3,6-diamino-pyridazin-3-yl derivatives, pharmaceutical compositions containing them and their uses as pro-apoptotic agents” (LES LABORATOIRES SERVIER, priority 2019, dated 2026)

Experiments:
MOLT-4 cells = assay: MOLT-4 cell viability, MTT assay; assay type: cell-based; conditions: Homo sapiens, MOLT-4, 48 h, 48 h exposure
Summary of the method: (§1)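 Viability read by MTT reduction (OD 540 nm after overnight SDS/HCl lysis) after 48 h compound treatment of cells in RPMI 1640/10% FBS. Triplicates at nine concentrations, 3.16-fold apart; four-parameter curve fitting yields IC50.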

Bcl-xL protein = target: T1, Bcl-xL protein (Homo sapiens, UniProt Q07817, N197C); assay: Fluorescence quenching assay (PUMA peptide displacement); assay type: binding; conditions: 1 nM protein, 400 nM peptide, 2 hours at 23° C.; KI determined from IC50
T1 construct: (2-197)[N197C]; His-His (two His8 stretches joined by a Gly/Ala/Ser/Thr linker)
Summary of the method: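 Compounds were tested as an 11-point series in pH 7.4 HEPES/NaCl/Tween buffer with 5% DMSO, 2 h at 23 °C. Cy5-tagged Bcl-xL(2-197, N197C) at 1 nM and quencher-tagged PUMA peptide at 400 nM were used. Competitive binders restore fluorescence (620/680 nm), and IC50 values were converted to KI.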

H146 cells = assay: H146 cell viability, MTT assay; assay type: cell-based; conditions: Homo sapiens, NCI-H146, 48 h, 48 h exposure
Summary of the method: as §1

T1 sequence (Q07817 2-197 N197C): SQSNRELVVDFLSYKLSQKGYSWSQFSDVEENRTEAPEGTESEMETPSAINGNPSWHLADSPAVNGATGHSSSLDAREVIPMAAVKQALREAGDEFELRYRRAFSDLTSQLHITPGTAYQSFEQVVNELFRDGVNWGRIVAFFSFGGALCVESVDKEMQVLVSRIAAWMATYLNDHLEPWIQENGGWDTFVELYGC

Row | SMILES | IC50 (MOLT-4 cells) [nM] | Ki (Bcl-xL protein) [nM] | IC50 (H146 cells) [nM]
1 | CNCCN(C)CCCCCN(c1cc(C)c(Nc2nc3ccccc3s2)nn1)c1nc(C(=O)O)c(CCCOc2ccc(C#CCN(C)C)cc2F)s1 [Example 190, 2-[[6-(1,3-Benzothiazol-2-ylamino)-5-methyl-pyridazin-3-yl]-[5-[methyl-[2-(methylamino)ethyl]amino]pentyl]amino]-5-[3-[4-[3-(dimethylamino)prop-1-ynyl]-2-fluoro-phenoxy]propyl]thiazole-4-carboxylic acid] | 54.9 | 0.0032 | 78.3
2 | CNCC#Cc1ccc(OCCCc2sc(N(CC[N+](C)(C)C)c3cc(C)c(Nc4nc5ccccc5s4)nn3)nc2C(=O)[O-])c(F)c1 [Example 201, 2-[[6-(1,3-Benzothiazol-2-ylamino)-5-methyl-pyridazin-3-yl]-[2-(trimethylammonio)ethyl]amino]-5-[3-[2-fluoro-4-[3-(methylamino)prop-1-ynyl]phenoxy]propyl]thiazole-4-carboxylate] | 417 | 0.0019 | 75.3
3 | CNCC#Cc1ccc(OCCCc2sc(N(CCCC(O)CN(C)C)c3cc(C)c(Nc4nc5ccccc5s4)nn3)nc2C(=O)O)c(F)c1 (stereo not drawn) [Example 193, 2-[[6-(1,3-Benzothiazol-2-ylamino)-5-methyl-pyridazin-3-yl]-[5-(dimethylamino)-4-hydroxy-pentyl]amino]-5-[3-[2-fluoro-4-[3-(methylamino)prop-1-ynyl]phenoxy]propyl]thiazole-4-carboxylic acid] | 92.5 | 0.0013 | 65
4 | Cc1cc(N(CCCCN2CCNCC2)c2nc(C(=O)O)c(CCCOc3ccc(C#CCN(C)C)cc3F)s2)nnc1Nc1nc2ccccc2s1 [Example 184, 2-[[6-(1,3-Benzothiazol-2-ylamino)-5-methyl-pyridazin-3-yl]-(4-piperazin-1-ylbutyl)amino]-5-[3-[4-[3-(dimethylamino)prop-1-ynyl]-2-fluoro-phenoxy]propyl]thiazole-4-carboxylic acid] | 184 | 0.0036 | 107
5 | CNCC#Cc1ccc(OCCCc2sc(N(CCCCC[N+](C)(C)CCCO)c3cc(C)c(Nc4nc5ccccc5s4)nn3)nc2C(=O)[O-])c(F)c1 [Example 230, 2-[[6-(1,3-Benzothiazol-2-ylamino)-5-methyl-pyridazin-3-yl]-[5-[3-hydroxypropyl(dimethyl)ammonio]pentyl]amino]-5-[3-[2-fluoro-4-[3-(methylamino)prop-1-ynyl]phenoxy]propyl]thiazole-4-carboxylate] | 2180 | 0.0014 | 1380
6 | Cc1cc(N(CCCC(O)C[N+](C)(C)C)c2nc(C(=O)[O-])c(CCCOc3ccc(C#CCN(C)C)cc3F)s2)nnc1Nc1nc2ccccc2s1 (stereo not drawn) [Example 211, 2-[[6-(1,3-Benzothiazol-2-ylamino)-5-methyl-pyridazin-3-yl]-[4-hydroxy-5-(trimethylammonio)pentyl]amino]-5-[3-[4-[3-(dimethylamino)prop-1-ynyl]-2-fluoro-phenoxy]propyl]thiazole-4-carboxylate] | 484 | 0.0065 | 66.8
7 | Cc1cc(N(C)c2nc(C(=O)O)c(CCCOc3ccc(C#CCN4CCCCC4)cc3F)s2)nnc1Nc1nc2ccccc2s1 [Example 204, 2-[[6-(1,3-Benzothiazol-2-ylamino)-5-methyl-pyridazin-3-yl]-methyl-amino]-5-[3-[2-fluoro-4-[3-(1-piperidyl)prop-1-ynyl]phenoxy]propyl]thiazole-4-carboxylic acid] | 0.703 | 0.006 | 7.3
8 | Cc1cc(N(CCCCN)c2nc(C(=O)O)c(CCCOc3ccc(C#CCN(C)C)cc3F)s2)nnc1Nc1nc2ccccc2s1 [Example 192, 2-[4-Aminobutyl-[6-(1,3-benzothiazol-2-ylamino)-5-methyl-pyridazin-3-yl]amino]-5-[3-[4-[3-(dimethylamino)prop-1-ynyl]-2-fluoro-phenoxy]propyl]thiazole-4-carboxylic acid] | 96.4 | 0.0029 | 11.9
